Data as given in US20040038369A1, “Airway-specific trypsin-like enzymes and method of using the same” (priority 2000, published 2004).
Counter-ions that a name gives are not always drawn.

Key:
[1] = molecular target: T1, recombinant AST (Homo sapiens, UniProt O60235); assay: AST-inhibiting activity of compound; assay type: biochemical; conditions: substrate Boc-Phe-Ser-Arg-MCA, 24° C., 6 minutes
T1 construct: 232 amino acids from Ile at the 187th position to Ile at the 418th position; made in house; host or cells: insect cells (Tn-5), recombinant baculovirus
Experimental: 0.05 mL of a 50 mM Tris-HCl buffer solution (pH 8.6) containing 2 ng/mL of the recombinant AST and 0.01% of Tween 20 was mixed with 2 μL of a DMSO solution containing nafamostat mesylate or gabexate mesylate as an evaluation target compound in various concentrations, and with 0.05 mL of a 50 mM Tris-HCl buffer solution (pH 8.6) containing 30 μM of a trypsin synthesis substrate: Boc-Phe-Ser-Arg-MCA, and incubated at 24° C. for 6 minutes. The quantities of the produced AMC were assayed by a fluorometry (fluorescent light: 460 nm, exciting light: 380 nm) with the passage of time, and the enzymatic activity-inhibiting ability of the compound was evaluated.

[2] = molecular target: T2, PAR-2 (Homo sapiens, UniProt P55085); assay: Calcium influx in PAR-2-expressing insect cells; assay type: cell-based; conditions: AST 2 units/mL; trypsin, thrombin 0.1 to 10 units/mL; SFLLRNamide, SLIGRL 10 to 100 μM
T2 construct: expressed in transfected cells; host or cells: Sf9 insect cells infected with recombinant baculovirus VL-PAR (pVL1393)
T2 sequence (P55085 26-397): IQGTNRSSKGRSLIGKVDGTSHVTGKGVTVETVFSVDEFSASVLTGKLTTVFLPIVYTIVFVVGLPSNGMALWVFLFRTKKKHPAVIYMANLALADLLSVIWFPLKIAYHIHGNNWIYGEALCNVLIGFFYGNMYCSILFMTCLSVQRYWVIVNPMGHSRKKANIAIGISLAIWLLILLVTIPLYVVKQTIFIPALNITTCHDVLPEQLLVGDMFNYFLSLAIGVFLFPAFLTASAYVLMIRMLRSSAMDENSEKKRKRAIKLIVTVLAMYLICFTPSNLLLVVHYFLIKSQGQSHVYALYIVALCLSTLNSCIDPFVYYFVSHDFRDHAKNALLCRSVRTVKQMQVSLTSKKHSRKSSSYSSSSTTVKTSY
Experimental: The above-obtained recombinant baculovirus VL-PAR for expressing the PAR was used to infect 1.0×10^7 Sf9 cells sowed on a 75 cm^2 flask at an MOI=2, and was then left and stationally cultured at 27° C. for 40 hours. After the culture, the infected cells were recovered and then subjected to a calcium influx experiment to-confirm the function of the PAR.
The recovered infected cells (about 5×10^6 cells) were once washed with HEPES-Tyrode buffer solution-Ca^2+ (−) pH 7.4, and then suspended in 5 mL of HEPES-Tyrode buffer solution (containing Fura2-AM, 1 μg/mL) to load the Fura2-AM on the cells at 27° C. for 30 minutes. The suspension was centrifuged at 800 rpm at room temperature for 5 minutes to recover the cells. The cells were twice washed with HEPES-Tyrode buffer solution-Ca^2+ (−) pH 7.4 and then resuspended in 5 mL of HEPES-Tyrode buffer solution-Ca^2+ (−) pH 7.4. The cell suspension was mixed with 5 μL of 1M CaCl2 to give a final concentration of 1 mM CaCl2, and then incubated in a shaded state at room temperature for 5 minutes. The prepared Fura2-AM-loaded infected cells were dispensed into a 96 well plate in a volume of 100 μL/well, further subjected to the dispensation of HEPES-Tyrode buffer solution-C^2+ (+) pH 7.4 in a volume of 80 μL/well, and then assayed with a Fluorescence Drug Screening System (made by Hamamatsu Photonics Co.). Namely, [intensity of 500 nm fluorescent light due to 340 nm exciting light]/[intensity of 500 nm fluorescent light due to 380 nm exciting light] (reflecting the concentration of calcium in the cells) was assayed.

[3] = tested on: normal human airway epithelial cells; assay: Calcium influx in normal human airway epithelial cells; assay type: cell-based; conditions: AST 2 units/mL; trypsin 10 to 100 units/mL; SFLLRNamide 100 μM
Experimental: The Ca^2+ influx due to the AST was examined with confluent normal epithelial cells adhered to three 10 cm dishes (purchased from BioWhittaker Corp.). The cells were peeled with a 10 mM EDTA/HEPES-Tyrode buffer solution for 10 minutes, recovered by a centrifugal treatment at 800 rpm at room temperature for 5 minutes, and then resuspended in 5 mL of HEPES-Tyrode buffer solution-Ca^2+ (−) pH 7.4. The recovered cells (about 1.2×10^6 cells) were suspended in 5 mL of HEPES-Tyrode buffer solution (1 μg/mL, containing Fura2-AM) to load the Fura2-AM to the cells at 37° C. for one hour. The cells were recovered by a centrifugal treatment at 800 rpm at room temperature for 5 minutes, twice washed with HEPES-Tyrode buffer solution-Ca^2+ (−) pH 7.4, and then resuspended in […] of HEPES-Tyrode buffer solution-Ca^2+ (−) pH 7.4. The cell suspension was mixed with 5 μL of 1M CaCl2 to give a final concentration of 1 mM CaCl2, and then incubated in a shaded state at room temperature for 5 minutes. The prepared Fura2-AM-loaded infected cells were dispensed into a 96 well plate in a volume of 100 μL/well, further subjected to the dispensation of HEPES-Tyrode buffer solution-Ca^2+ (+) pH 7.4 in a volume of 80 μL/well, and then assayed with Fluorescence Drug Screening System (Hamamatsu Photonics Co.). […]

[4] = tested on: BEAS-2B; assay: Calcium influx in airway epithelial cell strain BEAS-2B; assay type: cell-based; conditions: AST 2 units/mL; trypsin 10 to 100 units/mL; SFLLRNamide 100 μM
Experimental: The Ca^2+ influx due to the AST was examined with respect to an airway epithelial cell strain BEAS-2B. The confluent cells adhered to six 10 cm dishes were used. The cells were peeled with a 10 mM EDTA/HEPES-Tyrode buffer solution for 10 minutes, recovered by a centrifugal treatment at 1,500 rpm at room temperature for 5 minutes, and then resuspended in 10 mL of HEPES-Tyrode buffer solution-Ca^2+ (−) pH 7.4. The recovered cells (about 1.1×10^7 cells) were suspended in 11 mL of HEPES-Tyrode buffer solution (1 μg/mL, containing Fura2-AM) to load the Fura2-AM at 37° C. for 30 minutes. The cells were recovered by a centrifugal treatment at 1,500 rpm at room temperature for 5 minutes, twice washed with HEPES-Tyrode buffer solution-Ca^2+ (−) pH 7.4, and then resuspended in 11 mL of HEPES-Tyrode buffer solution-Ca^2+ (−) pH 7.4. The cell suspension was mixed with […] of 1M CaCl2 to give a final concentration of 1 mM CaCl2, and then incubated in a shaded state at room temperature for 5 minutes. The prepared Fura2-AM-loaded infected cells were dispensed into a 96 well plate in a volume of 100 μL/well, further subjected to the dispensation of HEPES-Tyrode buffer solution-Ca^2+ (+) pH 7.4 in a volume of 80 μL/well, and then assayed with Fluorescence Drug Screening System (Hamamatsu Photonics Co.). […]

T1 sequence (O60235 187-418): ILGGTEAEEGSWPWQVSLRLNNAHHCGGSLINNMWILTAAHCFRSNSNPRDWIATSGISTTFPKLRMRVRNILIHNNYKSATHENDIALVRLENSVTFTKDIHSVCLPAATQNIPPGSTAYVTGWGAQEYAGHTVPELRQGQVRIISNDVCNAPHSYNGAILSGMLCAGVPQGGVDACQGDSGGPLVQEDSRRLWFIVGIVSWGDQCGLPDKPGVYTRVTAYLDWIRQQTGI
T1 sequence (O60235 162-186 partner limits assumed): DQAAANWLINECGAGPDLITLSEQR

Row | Molecule | IC50 [1] | Ca2+ influx [2] | Ca2+ influx [3] | Ca2+ influx [4]
1 | N=C(N)c1ccc2cc(OC(=O)c3ccc(N=C(N)N)cc3)ccc2c1 [Nafamostat mesylate, nafamostat mesylate] | 230 nM | – | – | –
2 | SFLLRNamide [reference compound] | – | observed | observed | observed
3 | gabexate mesylate | 140 nM | – | – | –
